{
  "source": "ChEMBL document CHEMBL3832085",
  "experiment": "clinical",
  "details": "human, in vivo, topical or ocular, 46.1 mg",
  "data": [
    {"smiles": "CCN(CC)CC(=O)Nc1c(C)cccc1C", "note": "[LIDOCAINE]", "values": [
      {"measurement": "AUC", "setting": "AUC(0 to inf)", "value": 61.3, "unit": "ng·h/mL"},
      {"measurement": "Cmax", "setting": "Cmax", "value": 27.2, "unit": "ng/mL"},
      {"measurement": "Tmax", "setting": "Tmax", "value": 45, "unit": "min"}
    ]}
  ]
}
